Data reported in US20240216250A1, “COSMETIC PEPTIDES FOR IMPROVING SKIN REJUVENATION” (Lean Life Sciences, Inc., priority 2021, published 2024).
Ends that are not written are not given here.

Tests used:
prohibitin = molecular target: T1, prohibitin (Mus musculus, UniProt P67778); assay: ATS/prohibitin binding by ATS magnetic beads, immunoprecipitation and western blot; conditions: fractionated proteins from adipocytes captured on ATS magnetic beads, western blotting (A of FIG. 2)
T1 construct: Fractionated proteins isolated from adipocytes were incubated with the ATS magnetic beads; endogenous in cells; probably 3T3-L1
T1 sequence (P67778 2-272 limits assumed): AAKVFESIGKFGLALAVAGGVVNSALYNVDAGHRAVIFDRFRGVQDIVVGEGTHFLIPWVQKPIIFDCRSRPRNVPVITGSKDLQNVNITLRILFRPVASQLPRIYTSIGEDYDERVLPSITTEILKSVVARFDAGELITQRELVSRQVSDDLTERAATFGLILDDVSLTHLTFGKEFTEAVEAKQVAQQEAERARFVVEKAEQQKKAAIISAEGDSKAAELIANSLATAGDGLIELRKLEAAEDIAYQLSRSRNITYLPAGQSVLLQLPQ
Source text: FIG. 2: ATS/prohibitin binding determined by immunoprecipitation and western blot (A of FIG. 2). Location and degree of prohibitin expression in pre- or mature adipocytes. PM, plasma membrane; Cyt, Cytoplasm (B of FIG. 2). Confocal micrographs showing the location of prohibitin in mature- or pre-adipocytes (C of FIG. 2).
It was confirmed that prohibitin shifts its location to the cell membrane as adipogenesis progresses and ATS binds to prohibition. The ATS/prohibitin binding was verified in pre- or mature adipocytes (Won, Y. W. et al. Nat Mater 13, 1157-1164, (2014)). Fractionated proteins isolated from adipocytes were incubated with the ATS magnetic beads and the protein captured by ATS was identified by western blotting. […] Prohibitin is observed in several intracellular locations at varying expression levels depending on the degree of adipogenesis (Wang, P. et al. Cell Mol Life Sci 61, 2405-2417, (2004); Patel, N. et al. Proceedings of the National Academy of Sciences of the United States of America 107, 2503-2508, (2010)). The degree and location of prohibitin expression in pre- or mature adipocytes was determined. […] Confocal microscopy also verified the prohibitin expression on the cell membrane of mature adipocytes (C of FIG. 2). High-level prohibitin expression on the cell membrane of mature adipocytes is important to the ATS/prohibitin interaction.

3T3-L1 mature adipocytes = assay: Lipid accumulation in 3T3-L1 adipocytes by Oil Red O staining, with cell count; type: cell-based, mouse; conditions: Oil Red O, microscopy, peptides at 100 μM, three times per week for three weeks (Day 21), vs non-treated control
Protocol: FIG. 3: Representative photomicrographs showing Oil Red O-stained mature adipocytes treated with peptides at 100 μM (Day 21). H: Quantitative analysis of the lipids accumulated in the adipocytes (Day 21). Control absorbance: 0.526 (Red line). I: Relative cell counts on day 21.
The effects of the minimal short peptides in blocking lipid accumulation in adipocytes were compared with their parent full-length peptide. After generating five different 3 amino acid fragments (KGG, GGR, GRA, RAK, and AKD) from the original ATS peptide (KGGRAKD (SEQ ID NO:1)), each peptide was administered to 3T3-L1 pre-adipocytes in five varying concentrations. Peptides were treated to the adipocytes three times per week for three weeks. Oil Red O staining was utilized to assess the lipid contents in mature adipocytes in culture. The morphological characteristics of 3T3-L1 mature adipocytes were observed by microscopy. […] Furthermore, the lipids were quantitatively analyzed.
The number of viable cells is counted prior to Oil Red O staining using Cell Counting Kit 8 (Dojindo). This cell viability study allows one to determine potential toxicities of the peptides and compensate for cell number variation-causing artifacts. Oil Red O is dissolved in isopropanol at […] to create a working solution. 12 ml of Oil Red O working solution is mixed with 8 ml dH2O and incubated for 10 minutes. This solution is then filtered using a 0.2 μm syringe filter. Adipocytes seeded on 96-well plates are washed with PBS twice. 10% formaldehyde is added for initial fixation and the plates are incubated for at least 30 minutes. The formaldehyde is removed and the cells are once again washed twice, this time with dH2O. 60% isopropanol is added to each well. The plates are incubated for 5 minutes. The isopropanol is removed from the wells and replaced with Oil Red O working solution. The plates are incubated for an additional 10 minutes. The Oil Red O solution is removed and washed four times with dH2O. Lastly, digital micrographs of the lipid droplets in adipocytes are taken using a light microscope. After the staining protocol, all plates are washed three times with 60% isopropanol. Each time, 5 minutes of gentle rocking was used. The Oil Red O is extracted with 100% isopropanol with gentle rocking for 5 minutes. 200 μl isopropanol per well is used as a background to measure absorbance at 492 nm using a BioTek microplate reader.

3T3-L1 cells = assay: Fructose, glucose and sucrose concentration in adipocytes (3T3-L1 cell lysates, Fructose Assay Kit); type: cell-based, mouse; conditions: Examples 1-2 to 1-11, same manner as Example 1-1
Protocol: Fructose concentration in 3T3-L1 cell lysates was measured using the Fructose Assay Kit (Abcam, Cambridge, UK). Six-well plates were seeded with 5×10^5 3T3-L1 cells/well one day before treating with 150 μM peptide. After 48 hours of treatment, the cells were harvested and fructose concentrations were assayed according to the manufacturer's instruction.
In order to confirm the effect of peptides on reducing the fructose level in adipocytes, three groups of adipocytes were prepared. Among the three groups, one group was treated with GGR, and another group was treated with RAK. The remaining group was not treated with any peptides and used as a control group. […] Fructose—an intermediate metabolite of glucose—was measured to further probe glucose metabolism. 3T3-L1 cells treated with either peptide had lower fructose concentrations than untreated cells (FIG. 1).
An additional group of adipocytes are treated with one of KGGRAKD, KGG, GGR, GRA, RAK, AKD, DKA, KAR, ARG, RGG, GGK, and DKARGGK in the same manner as Example 1-1.

3T3-L1 fibroblast = assay: Collagen and fibronectin production in 3T3-L1 fibroblast by ELISA, with cell number; type: cell-based, mouse; conditions: across treatment groups
Source text: Effects of […] (SEQ ID NO: 5) on collagen and fibronectin production are validated in mouse fibroblast. A mouse fibroblast cell line is purchased from American Type Culture Collection (ATCC) to be used in all in vitro studies (3T3-L1 CL-173). The cells are first thawed into two T75 flasks per 1 million cell vial in basal medium I (BMI), which is composed of DMEM (4.5 g/l glucose) supplemented with 10% FBS and 1% Penicillin Streptomycin (P/S). The media is changed the following day, and on day 3, the cells are seeded in 96-well plates (200 μl/well). The peptide was administered to 3T3-L1 fibroblast in five varying concentrations. Collagen and fibronectin produced from the cell was assessed in the cell culture media 3 days after the peptide treatment by ELISA.

| Substance | Binding of ATS to prohibitin (prohibitin) | Number and size of lipid droplets in adipocytes (3T3-L1 mature adipocytes) | Fructose concentration in adipocytes vs control group (3T3-L1 cells) | Cell number at the end point (toxicity) (3T3-L1 fibroblast) |
| --- | --- | --- | --- | --- |
| KGGRAKD | specifically binds to prohibitin | smaller than those in the non-treated control | significantly lower than the control group | – |
| ACTGSTQHQGGGSESPLKRQG | – | – | – | almost the same across the treatment groups |
